Measurements from ChEMBL document CHEMBL5726113, “Compounds and methods for kinase modulation, and indications therefor” (2017).

Biological target: RAF proto-oncogene serine/threonine-protein kinase (Homo sapiens, UniProt P04049)
Experiment: Biochemical Assay: Assays for biochemical and cell based activity are known in the art, for example, as described in PCT publication WO 2007/002433, the disclosure of which is hereby incorporated by reference as it relates to such assays. For example, the biochemical activity IC50 values are determined with respect to inhibition of B-Raf kinase activity, c-Raf-1 kinase activity, or B-Raf V600E kinase activity, where inhibition of phosphorylation of a peptide substrate is measured as a function of compound concentration. Compounds to be tested are diluted in dimethyl sulfoxide to a concentration of 0.1 mM. These are serially diluted 15 μL into 30 μL of dimethyl sulfoxide seven times in 96 well plates for a total of 8 dilution points, and for each dilution point 1 μL is added to a well of an assay plate. Plates are prepared such that each well in a 384 well plate contains 1 μL of compound in 10 μL volume with 0.1 ng Raf enzyme (i.e. any of B-Raf, c-Raf-1 or B-Raf V600E, Upstate Biotechnology or prepared by methods known to one of skill in the art), 50 mM HEPES, pH 7.0, 50 mM NaCl, 2 mM MgCl2, 1 mM MnCl2, 0.01% Tween-20, 1 mM DTT, and 100 nM biotin-MEK1 as substrate. The reaction is started with addition of 10 μL of 200 μM ATP (i.e. final 100 μM ATP). […]

Chain of RAF proto-oncogene serine/threonine-protein kinase (P04049 whole entry): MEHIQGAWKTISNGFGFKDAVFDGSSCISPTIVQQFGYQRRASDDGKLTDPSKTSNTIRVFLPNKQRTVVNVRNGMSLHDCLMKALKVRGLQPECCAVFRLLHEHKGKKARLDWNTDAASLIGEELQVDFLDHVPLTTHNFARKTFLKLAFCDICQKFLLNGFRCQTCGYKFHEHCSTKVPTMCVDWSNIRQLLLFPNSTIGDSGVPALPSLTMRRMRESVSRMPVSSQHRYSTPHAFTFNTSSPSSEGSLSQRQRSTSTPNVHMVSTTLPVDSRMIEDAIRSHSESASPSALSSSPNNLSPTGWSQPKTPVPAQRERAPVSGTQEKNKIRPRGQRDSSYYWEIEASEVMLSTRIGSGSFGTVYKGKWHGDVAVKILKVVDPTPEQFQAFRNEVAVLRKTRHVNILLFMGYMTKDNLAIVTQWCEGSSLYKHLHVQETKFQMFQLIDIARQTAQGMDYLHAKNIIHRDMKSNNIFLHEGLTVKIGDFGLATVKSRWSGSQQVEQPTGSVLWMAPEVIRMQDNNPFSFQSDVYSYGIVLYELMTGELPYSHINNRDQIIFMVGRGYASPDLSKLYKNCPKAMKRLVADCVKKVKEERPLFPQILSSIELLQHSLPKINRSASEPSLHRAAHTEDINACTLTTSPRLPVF

CCCS(=O)(=O)Nc1ccc(F)c(C(=O)c2c[nH]c3ncnc(Nc4ccccc4)c23)c1F
IC50: < 100 nM
